{
  "source": "patent US6855829B2",
  "about": "“3-fluoro-2-oxindole modulators of KCNQ potassium channels and use thereof in treating migraine and mechanistically related disease” (Bristol-Myers Squibb Company, priority 2001, dated 2005)",
  "key": {"[1]": {"system": "SSS-stimulated trigeminal activity", "conditions": "cited from earlier work"}, "[2]": {"system": "SSS-stimulated field responses recorded in the trigeminal nucleus caudalis", "assay": "SSS-stimulated trigeminal field response (in vivo model of migraine)", "parameters": "species or system rat", "protocol": "(§1) Male Long-Evans rats (Harlan, 250-400 g) were used in the experiments described in this example. Prior to testing, rats were allowed access to food and water ad libitum and were maintained on a 12:12 hours light/dark cycle. Rats were group housed in an Association for Assessment and Accreditation of Laboratory Animal Care (A.A.A.L.A.C.) accredited facility and cared for in strict compliance with all applicable regulations.\nSSS stimulation and recording were performed in a manner consistent with previously published methods using cat (K. L. Hoskin et al., 1996, Brain, 119:101-108) and rat (M. J. Cumberbatch et al., 1998, Eur. J. Pharmacol., 362:43-46; and M. J. Cumberbatch et al., 1999, Br. J. Pharmacol., 126:1478-1486) animal models. Rats were anesthetized with 1.2 g/kg i.p. urethane (#U-2500, Sigma Chemical Company, St. Louis, Mo.) and given supplemental urethane as needed. In the case of intravenous (i.v.) drug administration (e.g., (+)-3-[5-Chloro-2-[(2,2,2-trifluoroethoxy)phenyl]-1,3-dihydro-3-fluoro-6-(trifluoromethyl)-2H-indol-2-one), the jugular veins of the rats were cannulated using sylastic tubing pre-filled with vehicle. […]\nStimulated field responses were recorded in the trigeminal nucleus caudalis using Teflon coated stainless-steel microelectrodes (5 MΩ impedance, Frederick Haer, Brunswick, Me.) and amplified and filtered (0.1 Hz-10 kHz) using a differential amplifier (#IsoDAM8, World Precision Instruments, Sarasota, Fla.). […]\nThree baseline measures (i.e., 100% of control), each consisting of 100 evoked trigeminal field potentials, were sampled prior to drug injection. […] Following injection of test substances, data were sampled for 1 hour, averaged into 5 minute bins (90 evoked potentials) and expressed as a percent change from average baseline values for the purposes of statistical analysis. Data were analyzed using repeated measures analyses of variance comparing vehicle and drug effects. […]"}, "[3]": {"biological_target": "murine KCNQ2 (mKCNQ2) (Mus musculus, UniProt Q9Z351)", "sequence (Q9Z351 whole entry)": "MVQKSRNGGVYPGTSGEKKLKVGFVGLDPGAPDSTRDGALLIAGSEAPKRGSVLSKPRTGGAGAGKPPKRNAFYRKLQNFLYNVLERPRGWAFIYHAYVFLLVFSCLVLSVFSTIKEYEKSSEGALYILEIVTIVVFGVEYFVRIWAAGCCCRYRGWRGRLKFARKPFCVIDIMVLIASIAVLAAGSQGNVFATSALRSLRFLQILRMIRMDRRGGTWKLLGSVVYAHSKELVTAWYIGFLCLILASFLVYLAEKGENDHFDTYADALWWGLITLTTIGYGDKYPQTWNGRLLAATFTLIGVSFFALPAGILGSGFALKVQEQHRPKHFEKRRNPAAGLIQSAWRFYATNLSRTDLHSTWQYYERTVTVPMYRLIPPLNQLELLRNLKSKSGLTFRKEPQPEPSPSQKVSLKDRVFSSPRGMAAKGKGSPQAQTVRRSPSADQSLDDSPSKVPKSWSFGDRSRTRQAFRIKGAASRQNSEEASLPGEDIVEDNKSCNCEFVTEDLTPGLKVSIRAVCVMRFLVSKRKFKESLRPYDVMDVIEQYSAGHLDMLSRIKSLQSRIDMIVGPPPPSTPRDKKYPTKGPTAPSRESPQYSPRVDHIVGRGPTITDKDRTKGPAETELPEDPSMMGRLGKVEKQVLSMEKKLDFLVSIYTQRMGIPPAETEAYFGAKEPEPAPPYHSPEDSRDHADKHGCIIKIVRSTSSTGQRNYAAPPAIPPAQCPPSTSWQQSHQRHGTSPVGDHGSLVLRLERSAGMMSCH", "assay": "Two-electrode voltage clamp, Xenopus oocyte expressed mKCNQ2-mediated outward currents", "format": "cell-based", "conditions": "10 μM, Xenopus oocytes", "protocol": "(§2) The ability of the compounds described herein to open KCNQ channels and increase whole-cell outward (K^+) KCNQ-mediated currents was assessed under voltage-clamp conditions by determining their ability to increase cloned […] KCNQ2 (mKCNQ2)-mediated, heteromultimeric murine KCNQ2/3 (mKCNQ2/3)-mediated, and heterologous human KCNQ5 (hKCNQ5)-mediated outward currents expressed in Xenopus oocytes. Oocytes were prepared and injected using standard techniques; each oocyte was injected with approximately 50 nl of mKCNQ2, or hKCNQ5 cRNA. In the case of mKCNQ2/3 heteromultimeric channel expression, equal amounts (25-50 nL) of each cRNA were co-injected.\n(§3) Following injection, oocytes were maintained at 17° C. in ND96 medium containing (in mM): NaCl, 90; KCl, 1.0; CaCl2, 1.0; MgCl2, 1.0; HEPES, 5.0; pH 7.5. Horse serum (5%) and penicillin/streptomycin (5%) were added to the incubation medium. Recording commenced 2-6 days following mRNA injection. […]\n(§4) Frog (Xenopus laevis) oocytes were impaled with electrodes (1-2 MΩ) and standard 2-electrode voltage clamp techniques were employed to record whole-cell membrane currents. […] Compounds were evaluated at a single concentration (10 or 20 μM), and the effect of the selected compounds of Formula I on KCNQ2 current was expressed as the percent of control current. […]"}, "[4]": {"biological_target": "human KCNQ5 (hKCNQ5) (Homo sapiens, UniProt Q9NR82)", "sequence (Q9NR82 whole entry)": "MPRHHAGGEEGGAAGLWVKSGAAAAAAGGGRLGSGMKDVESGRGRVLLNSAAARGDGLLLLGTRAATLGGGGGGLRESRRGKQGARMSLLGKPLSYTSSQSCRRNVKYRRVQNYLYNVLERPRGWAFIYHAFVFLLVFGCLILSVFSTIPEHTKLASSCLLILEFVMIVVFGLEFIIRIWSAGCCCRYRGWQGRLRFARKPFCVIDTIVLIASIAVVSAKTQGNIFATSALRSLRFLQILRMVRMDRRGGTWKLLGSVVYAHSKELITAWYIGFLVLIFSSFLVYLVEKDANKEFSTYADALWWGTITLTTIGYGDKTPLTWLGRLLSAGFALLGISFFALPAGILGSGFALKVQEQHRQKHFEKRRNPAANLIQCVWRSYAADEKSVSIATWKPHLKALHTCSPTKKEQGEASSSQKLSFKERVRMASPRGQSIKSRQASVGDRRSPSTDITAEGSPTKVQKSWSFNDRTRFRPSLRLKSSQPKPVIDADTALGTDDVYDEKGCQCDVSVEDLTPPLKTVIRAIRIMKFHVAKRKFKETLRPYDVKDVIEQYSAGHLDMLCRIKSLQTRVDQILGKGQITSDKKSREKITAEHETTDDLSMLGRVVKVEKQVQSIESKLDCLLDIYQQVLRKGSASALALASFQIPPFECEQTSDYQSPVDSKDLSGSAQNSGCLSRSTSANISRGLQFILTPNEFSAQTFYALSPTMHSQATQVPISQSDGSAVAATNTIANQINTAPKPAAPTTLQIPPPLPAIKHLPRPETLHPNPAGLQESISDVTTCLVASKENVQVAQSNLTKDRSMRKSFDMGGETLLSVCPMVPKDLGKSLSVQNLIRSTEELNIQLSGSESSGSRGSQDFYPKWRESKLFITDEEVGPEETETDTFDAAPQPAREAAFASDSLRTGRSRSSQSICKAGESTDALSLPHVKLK", "assay": "Two-electrode voltage clamp, Xenopus oocyte-expressed hKCNQ5-mediated outward currents", "format": "cell-based", "conditions": "Xenopus oocytes, n=3, single concentration (10 or 20 μM)", "protocol": "as §2, §3, §4"}, "[5]": {"system": "cortical spreading depression", "assay": "Cortical spreading depression elicited by KCl application", "format": "in vivo", "conditions": "rat, 0.1, 1.0, 5.0, 10.0 and 30.0 mg/kg i.v. vs vehicle (overall ANOVA p<0.001)", "protocol": "as §1\nRats were anesthetized with urethane anesthesia (1.2 g/kg i.p.), implanted with a jugular vein catheter for drug injections, and placed in a stereotaxic frame. The skull was exposed and a small hole (approximately 2 mm by 3 mm) was drilled in the skull rostral to the lambdoid suture using a microdrill and steel burr creating a “well”. The dura was disrupted and a drop of mineral oil was placed in this well. Crystalline KCl was later applied to the well for 10 minutes to elicit spreading depression. Typically, this application produced a long-lasting series of spreading depressions.\nTwo additional holes were placed in the skull unilaterally at 4 and 8 mm rostral to the application hole. Silver wire electrodes were placed in these latter holes and secured to the skull using acrylic cement. […]\nDifferences between control and drug conditions were assessed using analyses of variance (ANOVA) and appropriate post-hoc analyses. […]"}},
  "note": "Entries after “also recorded” stand apart in the source; their conditions may differ. Where two headings read alike, the source gives them in different places.",
  "data": [
    {"smiles": "CN1C[C@H](C(=O)N[C@]2(C)O[C@@]3(O)[C@@H]4CCCN4C(=O)[C@H](Cc4ccccc4)N3C2=O)C[C@@H]2c3cccc4[nH]cc(c34)C[C@H]21", "note": "[dihydroergotamine]", "values": [
      {"measurement": "physiological measures of SSS-stimulated trigeminal activity", "setting": "[1]; literature reports", "value": "decrease"}
    ]},
    {"smiles": "O=C(NCc1ccc(C(F)(F)F)cc1)c1cnc(N2CCCC2)nc1C(F)(F)F", "note": "[Compound 2, 2-(Pyrrolidin-1-yl)-4-(trifluoromethyl)-N-[[4-(trifluoromethyl)phenyl]methyl]pyrimidine-5-carboxamide]", "values": [
      {"measurement": "effect on SSS stimulation evoked trigeminal field potential amplitude", "setting": "[2]; urethane anesthetized rats, 1 mg/kg i.v.", "value": "statistically significant (p=0.005) decrease"}
    ]},
    {"smiles": "CNS(=O)(=O)Cc1ccc2[nH]cc(CCN(C)C)c2c1", "note": "[sumatriptan]", "values": [
      {"measurement": "physiological measures of SSS-stimulated trigeminal activity", "setting": "[1]; following blood-brain-barrier disruption, literature report", "value": "decrease"}
    ]},
    {"smiles": "CN(C)CCc1c[nH]c2ccc(C[C@H]3COC(=O)N3)cc12", "note": "[zolmitriptan]", "values": [
      {"measurement": "physiological measures of SSS-stimulated trigeminal activity", "setting": "[1]; literature reports", "value": "decrease"}
    ]},
    {"smiles": "O=C1Nc2cc(C(F)(F)F)ccc2C1(F)c1cc(Cl)ccc1OCC(F)(F)F", "note": "(single isomer, unassigned; (+)) [Compound 1]", "values": [
      {"measurement": "increase of KCNQ2 current over the KCNQ2 current in controls", "setting": "[3]", "value": "> 150", "unit": "%"},
      {"measurement": "human KCNQ5-mediated outward currents, % of control", "setting": "[4]", "value": "157.4+/−6.0 % of control"},
      {"measurement": "decrease in trigeminal field potentials from control amplitude", "setting": "[2]; rat, 50 mg/kg i.v. (highest dose)", "value": "86.7±1.67", "unit": "%"},
      {"measurement": "effect on SSS-stimulated trigeminal field response", "setting": "[2]; rat, doses 0.1, 1.0, 10.0, 30.0 and 50.0 mg/kg i.v., vs vehicle (p<0.01 in all cases; overall ANOVA p<0.001)", "value": "dose-dependent reduction; also recorded: significant reduction; also recorded: dose-dependent decrease"},
      {"measurement": "number of spreading depressions produced by a single 10 min KCl application", "setting": "[5]", "value": "significant reduction"}
    ]},
    {"smiles": "CNS(=O)(=O)CCc1ccc2[nH]cc(C3CCN(C)CC3)c2c1", "note": "[naratriptan]", "values": [
      {"measurement": "physiological measures of SSS-stimulated trigeminal activity", "setting": "[1]; literature reports", "value": "decrease"}
    ]},
    {"smiles": "CN(C)CCc1c[nH]c2ccc(Cn3cncn3)cc12", "note": "[rizatriptan]", "values": [
      {"measurement": "physiological measures of SSS-stimulated trigeminal activity", "setting": "[1]; literature reports", "value": "decrease"}
    ]}
  ]
}
